{"source": "the kinase profiling compilation of Christmann-Franck et al. (2016)", "assay_in_all_cases": "KINOMEscan competition binding", "conditions_in_all_cases": "compound 1.0 µM", "key": {"[1]": {"target": "TLK2 (human) (UniProt Q86UE8)"}, "[2]": {"target": "ACVR2B (human) (UniProt Q13705)", "sequence (Q13705 whole entry, looked up)": "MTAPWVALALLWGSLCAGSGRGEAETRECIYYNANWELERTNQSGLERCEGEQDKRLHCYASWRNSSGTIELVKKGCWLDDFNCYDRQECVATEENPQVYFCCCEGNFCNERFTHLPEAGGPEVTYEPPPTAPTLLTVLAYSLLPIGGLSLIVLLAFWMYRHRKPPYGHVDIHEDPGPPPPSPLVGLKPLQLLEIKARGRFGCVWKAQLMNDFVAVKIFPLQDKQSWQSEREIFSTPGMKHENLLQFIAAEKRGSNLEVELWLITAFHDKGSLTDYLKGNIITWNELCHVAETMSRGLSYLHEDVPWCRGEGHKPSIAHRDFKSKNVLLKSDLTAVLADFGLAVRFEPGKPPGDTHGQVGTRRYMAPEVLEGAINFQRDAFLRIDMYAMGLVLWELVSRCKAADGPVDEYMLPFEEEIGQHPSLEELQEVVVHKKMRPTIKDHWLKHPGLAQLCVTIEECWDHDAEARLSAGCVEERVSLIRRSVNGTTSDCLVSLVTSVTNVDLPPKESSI"}, "[3]": {"target": "LTK (human) (UniProt P29376)"}, "[4]": {"target": "WEE1 (human) (UniProt P30291)", "sequence (P30291 whole entry, looked up)": "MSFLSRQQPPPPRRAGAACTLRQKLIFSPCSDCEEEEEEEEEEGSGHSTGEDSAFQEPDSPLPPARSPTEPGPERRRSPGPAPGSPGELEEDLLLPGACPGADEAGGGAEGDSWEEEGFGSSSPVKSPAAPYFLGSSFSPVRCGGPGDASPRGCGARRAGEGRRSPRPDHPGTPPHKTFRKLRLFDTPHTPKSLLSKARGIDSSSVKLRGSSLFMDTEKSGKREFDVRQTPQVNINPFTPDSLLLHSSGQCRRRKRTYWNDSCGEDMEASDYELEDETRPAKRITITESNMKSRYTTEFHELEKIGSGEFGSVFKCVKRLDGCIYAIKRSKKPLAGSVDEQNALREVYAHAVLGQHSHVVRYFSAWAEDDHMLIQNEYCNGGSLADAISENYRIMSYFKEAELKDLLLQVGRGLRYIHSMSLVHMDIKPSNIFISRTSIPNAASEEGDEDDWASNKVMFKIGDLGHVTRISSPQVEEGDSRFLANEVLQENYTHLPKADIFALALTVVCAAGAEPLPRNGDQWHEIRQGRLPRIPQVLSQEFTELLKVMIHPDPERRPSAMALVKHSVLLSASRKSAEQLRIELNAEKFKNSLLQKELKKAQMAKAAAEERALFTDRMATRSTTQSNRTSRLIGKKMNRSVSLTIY"}, "[5]": {"target": "STK25 (human) (UniProt O00506)"}, "[6]": {"target": "RPS6KA4 KD2 (human) (UniProt O75676)"}, "[7]": {"target": "MAP3K6 (human) (UniProt O95382)"}, "[8]": {"target": "CDK5 (human) (UniProt Q00535)"}, "[9]": {"target": "CDK8 (human) (UniProt P49336)", "sequence (P49336 whole entry, looked up)": "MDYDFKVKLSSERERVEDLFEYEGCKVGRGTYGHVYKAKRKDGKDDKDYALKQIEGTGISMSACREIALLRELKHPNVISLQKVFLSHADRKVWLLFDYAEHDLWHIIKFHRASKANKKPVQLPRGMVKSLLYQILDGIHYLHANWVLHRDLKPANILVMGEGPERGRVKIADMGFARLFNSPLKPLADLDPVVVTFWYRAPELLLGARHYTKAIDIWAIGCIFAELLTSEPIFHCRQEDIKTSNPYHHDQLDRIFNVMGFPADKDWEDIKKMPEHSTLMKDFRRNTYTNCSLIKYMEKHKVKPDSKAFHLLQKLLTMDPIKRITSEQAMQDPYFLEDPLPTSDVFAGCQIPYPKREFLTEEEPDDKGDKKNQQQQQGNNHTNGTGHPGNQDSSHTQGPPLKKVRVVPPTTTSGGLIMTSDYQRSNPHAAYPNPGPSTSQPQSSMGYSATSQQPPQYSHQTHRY"}, "[10]": {"target": "TYK2 JH1 catalytic (human) (UniProt P29597)"}, "[11]": {"system": "PIK3CA (human), P42336 [H1047L]"}, "[12]": {"target": "TTK (human) (UniProt P33981)"}, "[13]": {"target": "RPS6KA5 KD2 (human) (UniProt O75582)"}, "[14]": {"target": "AAK1 (human) (UniProt Q2M2I8)"}, "[15]": {"target": "RPS6KA4 KD1 (human) (UniProt O75676)"}, "[16]": {"target": "ANKK1 (human) (UniProt Q8NFD2)"}, "[17]": {"target": "SBK1 (human) (UniProt Q52WX2)"}, "[18]": {"target": "SRMS (human) (UniProt Q9H3Y6)"}, "[19]": {"target": "RET (human) (UniProt P07949)"}, "[20]": {"system": "KIT (human), P10721 [L576P]", "sequence (P10721 whole entry L576P, looked up)": "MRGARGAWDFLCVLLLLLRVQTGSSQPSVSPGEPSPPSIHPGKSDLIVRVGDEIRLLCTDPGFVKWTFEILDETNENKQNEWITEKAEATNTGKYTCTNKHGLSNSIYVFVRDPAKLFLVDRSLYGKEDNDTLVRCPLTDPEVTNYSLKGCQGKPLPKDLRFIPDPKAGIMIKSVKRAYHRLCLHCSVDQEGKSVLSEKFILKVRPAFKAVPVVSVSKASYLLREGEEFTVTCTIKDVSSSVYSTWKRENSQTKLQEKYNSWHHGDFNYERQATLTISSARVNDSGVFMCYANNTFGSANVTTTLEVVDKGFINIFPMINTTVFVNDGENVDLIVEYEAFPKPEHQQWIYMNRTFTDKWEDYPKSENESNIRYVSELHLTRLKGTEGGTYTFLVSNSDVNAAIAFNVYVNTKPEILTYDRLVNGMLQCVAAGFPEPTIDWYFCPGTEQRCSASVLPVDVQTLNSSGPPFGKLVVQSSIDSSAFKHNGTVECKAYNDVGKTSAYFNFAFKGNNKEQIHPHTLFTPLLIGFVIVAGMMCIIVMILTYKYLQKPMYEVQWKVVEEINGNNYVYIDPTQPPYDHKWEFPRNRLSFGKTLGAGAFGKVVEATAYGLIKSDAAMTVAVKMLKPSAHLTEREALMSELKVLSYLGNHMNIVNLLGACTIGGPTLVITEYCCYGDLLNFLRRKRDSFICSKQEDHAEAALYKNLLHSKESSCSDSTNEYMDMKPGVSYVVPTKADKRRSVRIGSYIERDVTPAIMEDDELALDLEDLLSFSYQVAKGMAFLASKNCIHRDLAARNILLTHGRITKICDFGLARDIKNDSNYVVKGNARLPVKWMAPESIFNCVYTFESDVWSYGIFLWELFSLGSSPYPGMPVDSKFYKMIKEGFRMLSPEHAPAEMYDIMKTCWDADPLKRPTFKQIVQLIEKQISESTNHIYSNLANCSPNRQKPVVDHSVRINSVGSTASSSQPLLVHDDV"}, "[21]": {"target": "EPHB3 (human) (UniProt P54753)", "sequence (P54753 whole entry, looked up)": "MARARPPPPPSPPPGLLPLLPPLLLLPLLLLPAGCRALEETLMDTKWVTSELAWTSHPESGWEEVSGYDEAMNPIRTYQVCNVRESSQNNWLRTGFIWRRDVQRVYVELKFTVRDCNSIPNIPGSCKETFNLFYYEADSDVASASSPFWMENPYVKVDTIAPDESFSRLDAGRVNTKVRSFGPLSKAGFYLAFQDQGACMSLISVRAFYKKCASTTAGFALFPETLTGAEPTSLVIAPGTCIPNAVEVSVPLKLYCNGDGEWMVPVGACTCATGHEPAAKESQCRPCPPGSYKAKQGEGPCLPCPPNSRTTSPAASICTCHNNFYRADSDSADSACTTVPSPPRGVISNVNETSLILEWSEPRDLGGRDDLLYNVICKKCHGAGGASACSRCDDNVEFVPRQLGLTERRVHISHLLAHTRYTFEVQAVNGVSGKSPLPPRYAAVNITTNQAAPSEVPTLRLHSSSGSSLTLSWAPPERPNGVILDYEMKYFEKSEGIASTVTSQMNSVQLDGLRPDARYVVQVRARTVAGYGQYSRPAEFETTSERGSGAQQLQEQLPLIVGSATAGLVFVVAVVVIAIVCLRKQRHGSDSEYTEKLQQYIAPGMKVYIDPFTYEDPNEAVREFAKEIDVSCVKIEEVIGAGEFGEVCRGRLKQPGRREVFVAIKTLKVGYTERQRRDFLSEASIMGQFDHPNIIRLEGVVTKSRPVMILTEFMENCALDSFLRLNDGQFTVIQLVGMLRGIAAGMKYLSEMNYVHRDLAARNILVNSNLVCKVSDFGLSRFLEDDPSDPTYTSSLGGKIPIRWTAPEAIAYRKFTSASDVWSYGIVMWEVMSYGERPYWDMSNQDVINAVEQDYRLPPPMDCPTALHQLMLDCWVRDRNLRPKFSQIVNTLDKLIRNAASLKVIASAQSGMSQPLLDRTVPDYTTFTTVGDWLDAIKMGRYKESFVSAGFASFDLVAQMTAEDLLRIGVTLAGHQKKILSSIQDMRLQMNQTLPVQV"}, "[22]": {"target": "BMX (human) (UniProt P51813)"}, "[23]": {"target": "NTRK1 (human) (UniProt P04629)"}, "[24]": {"target": "CDK18 (human) (UniProt Q07002)"}, "[25]": {"target": "PIP5K1A (human) (UniProt Q99755)"}, "[26]": {"target": "CLK1 (human) (UniProt P49759)", "sequence (P49759 whole entry, looked up)": "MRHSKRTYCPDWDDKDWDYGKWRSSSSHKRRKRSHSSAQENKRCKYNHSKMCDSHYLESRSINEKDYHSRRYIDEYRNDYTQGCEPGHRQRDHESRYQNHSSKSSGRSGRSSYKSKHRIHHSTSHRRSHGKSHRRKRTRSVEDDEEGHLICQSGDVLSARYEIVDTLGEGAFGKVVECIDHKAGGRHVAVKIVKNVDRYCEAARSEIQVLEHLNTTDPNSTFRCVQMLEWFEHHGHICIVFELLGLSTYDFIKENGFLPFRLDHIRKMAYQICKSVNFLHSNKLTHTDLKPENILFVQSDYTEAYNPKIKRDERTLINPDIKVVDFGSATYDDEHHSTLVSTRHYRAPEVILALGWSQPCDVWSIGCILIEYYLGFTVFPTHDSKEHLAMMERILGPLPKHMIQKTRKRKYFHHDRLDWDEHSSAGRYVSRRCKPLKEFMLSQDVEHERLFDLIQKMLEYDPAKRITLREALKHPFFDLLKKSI"}, "[27]": {"target": "STK32C (human) (UniProt Q86UX6)"}, "[28]": {"target": "FES (human) (UniProt P07332)"}, "[29]": {"target": "CSNK2A2 (human) (UniProt P19784)"}, "[30]": {"target": "STK38L (human) (UniProt Q9Y2H1)"}, "[31]": {"target": "TGFBR2 (human) (UniProt P37173)"}, "[32]": {"target": "MAPK1 (human) (UniProt P28482)"}, "[33]": {"target": "PAK2 (human) (UniProt Q13177)"}, "[34]": {"target": "CSNK1D (human) (UniProt P48730)"}, "[35]": {"system": "EGFR (human), P00533 [T790M/L858R]"}, "[36]": {"system": "KIT (human), P10721 [V559D]", "sequence (P10721 whole entry V559D, looked up)": "as the sequence (P10721 whole entry L576P, looked up) above, with V559D, P576L counted along it"}, "[37]": {"target": "PIM2 (human) (UniProt Q9P1W9)"}, "[38]": {"target": "DAPK3 (human) (UniProt O43293)"}, "[39]": {"target": "DDR1 (human) (UniProt Q08345)", "sequence (Q08345 whole entry, looked up)": "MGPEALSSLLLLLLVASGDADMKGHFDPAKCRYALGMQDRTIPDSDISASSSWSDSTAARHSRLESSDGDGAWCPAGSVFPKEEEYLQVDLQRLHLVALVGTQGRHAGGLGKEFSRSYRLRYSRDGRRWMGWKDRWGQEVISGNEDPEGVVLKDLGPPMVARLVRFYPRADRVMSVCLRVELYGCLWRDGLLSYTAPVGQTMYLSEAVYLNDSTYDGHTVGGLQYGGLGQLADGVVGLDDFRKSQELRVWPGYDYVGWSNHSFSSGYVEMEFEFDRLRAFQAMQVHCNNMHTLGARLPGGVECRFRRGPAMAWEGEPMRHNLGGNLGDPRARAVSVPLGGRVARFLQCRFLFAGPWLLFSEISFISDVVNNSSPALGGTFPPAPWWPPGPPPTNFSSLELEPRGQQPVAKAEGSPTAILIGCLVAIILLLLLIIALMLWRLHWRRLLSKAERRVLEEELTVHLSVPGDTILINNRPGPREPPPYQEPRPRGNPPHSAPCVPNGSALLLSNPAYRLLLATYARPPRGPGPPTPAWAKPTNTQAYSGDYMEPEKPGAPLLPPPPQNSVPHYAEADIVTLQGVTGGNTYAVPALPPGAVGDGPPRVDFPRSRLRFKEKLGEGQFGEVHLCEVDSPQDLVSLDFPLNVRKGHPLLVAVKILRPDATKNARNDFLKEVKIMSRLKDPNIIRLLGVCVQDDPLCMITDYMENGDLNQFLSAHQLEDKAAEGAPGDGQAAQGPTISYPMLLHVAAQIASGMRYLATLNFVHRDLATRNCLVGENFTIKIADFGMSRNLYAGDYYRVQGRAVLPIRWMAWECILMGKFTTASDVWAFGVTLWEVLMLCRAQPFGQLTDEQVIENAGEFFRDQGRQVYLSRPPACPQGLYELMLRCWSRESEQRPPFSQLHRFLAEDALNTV"}, "[40]": {"target": "CSNK1A1L (human) (UniProt Q8N752)"}, "[41]": {"target": "IRAK3 (human) (UniProt Q9Y616)"}, "[42]": {"target": "ROS1 (human) (UniProt P08922)"}}, "data": [{"compound": "Cc1cc(NC(=O)c2cccc(NC(=O)/C=C/CN(C)C)c2)ccc1Nc1nccc(-c2cccnc2)n1", "values": [{"measurement": "kinase still bound, per cent of control", "setting": "[1]", "result": 100, "unit": "%"}, {"measurement": "kinase still bound, per cent of control", "setting": "[2]", "result": 100, "unit": "%"}, {"measurement": "kinase still bound, per cent of control", "setting": "[3]", "result": 100, "unit": "%"}, {"measurement": "kinase still bound, per cent of control", "setting": "[4]", "result": 100, "unit": "%"}, {"measurement": "kinase still bound, per cent of control", "setting": "[5]", "result": 92, "unit": "%"}, {"measurement": "kinase still bound, per cent of control", "setting": "[6]", "result": 74, "unit": "%"}, {"measurement": "kinase still bound, per cent of control", "setting": "[7]", "result": 92, "unit": "%"}, {"measurement": "kinase still bound, per cent of control", "setting": "[8]", "result": 100, "unit": "%"}, {"measurement": "kinase still bound, per cent of control", "setting": "[9]", "result": 51, "unit": "%"}, {"measurement": "kinase still bound, per cent of control", "setting": "[10]", "result": 96, "unit": "%"}, {"measurement": "kinase still bound, per cent of control", "setting": "[11]", "result": 100, "unit": "%"}, {"measurement": "kinase still bound, per cent of control", "setting": "[12]", "result": 46, "unit": "%"}, {"measurement": "kinase still bound, per cent of control", "setting": "[13]", "result": 97, "unit": "%"}, {"measurement": "kinase still bound, per cent of control", "setting": "[14]", "result": 69, "unit": "%"}, {"measurement": "kinase still bound, per cent of control", "setting": "[15]", "result": 79, "unit": "%"}, {"measurement": "kinase still bound, per cent of control", "setting": "[16]", "result": 75, "unit": "%"}, {"measurement": "kinase still bound, per cent of control", "setting": "[17]", "result": 96, "unit": "%"}, {"measurement": "kinase still bound, per cent of control", "setting": "[18]", "result": 94, "unit": "%"}, {"measurement": "kinase still bound, per cent of control", "setting": "[19]", "result": 100, "unit": "%"}, {"measurement": "kinase still bound, per cent of control", "setting": "[20]", "result": 100, "unit": "%"}, {"measurement": "kinase still bound, per cent of control", "setting": "[21]", "result": 100, "unit": "%"}, {"measurement": "kinase still bound, per cent of control", "setting": "[22]", "result": 100, "unit": "%"}, {"measurement": "kinase still bound, per cent of control", "setting": "[23]", "result": 87, "unit": "%"}, {"measurement": "kinase still bound, per cent of control", "setting": "[24]", "result": 100, "unit": "%"}, {"measurement": "kinase still bound, per cent of control", "setting": "[25]", "result": 75, "unit": "%"}, {"measurement": "kinase still bound, per cent of control", "setting": "[26]", "result": 100, "unit": "%"}, {"measurement": "kinase still bound, per cent of control", "setting": "[27]", "result": 95, "unit": "%"}, {"measurement": "kinase still bound, per cent of control", "setting": "[28]", "result": 89, "unit": "%"}, {"measurement": "kinase still bound, per cent of control", "setting": "[29]", "result": 39, "unit": "%"}, {"measurement": "kinase still bound, per cent of control", "setting": "[30]", "result": 100, "unit": "%"}, {"measurement": "kinase still bound, per cent of control", "setting": "[31]", "result": 64, "unit": "%"}, {"measurement": "kinase still bound, per cent of control", "setting": "[32]", "result": 99, "unit": "%"}, {"measurement": "kinase still bound, per cent of control", "setting": "[33]", "result": 100, "unit": "%"}, {"measurement": "kinase still bound, per cent of control", "setting": "[34]", "result": 18, "unit": "%"}, {"measurement": "kinase still bound, per cent of control", "setting": "[35]", "result": 81, "unit": "%"}, {"measurement": "kinase still bound, per cent of control", "setting": "[36]", "result": 0.95, "unit": "%"}, {"measurement": "kinase still bound, per cent of control", "setting": "[37]", "result": 100, "unit": "%"}, {"measurement": "kinase still bound, per cent of control", "setting": "[38]", "result": 100, "unit": "%"}, {"measurement": "kinase still bound, per cent of control", "setting": "[39]", "result": 93, "unit": "%"}, {"measurement": "kinase still bound, per cent of control", "setting": "[40]", "result": 71, "unit": "%"}, {"measurement": "kinase still bound, per cent of control", "setting": "[41]", "result": 85, "unit": "%"}, {"measurement": "kinase still bound, per cent of control", "setting": "[42]", "result": 90, "unit": "%"}]}, {"compound": "CN(C)C/C=C/C(=O)Nc1cccc(C(=O)Nc2ccc(Nc3nccc(/C(C#N)=C4\\Nc5ccccc5S4)n3)cc2)c1", "values": [{"measurement": "kinase still bound, per cent of control", "setting": "[1]", "result": 100, "unit": "%"}, {"measurement": "kinase still bound, per cent of control", "setting": "[2]", "result": 100, "unit": "%"}, {"measurement": "kinase still bound, per cent of control", "setting": "[3]", "result": 100, "unit": "%"}, {"measurement": "kinase still bound, per cent of control", "setting": "[4]", "result": 100, "unit": "%"}, {"measurement": "kinase still bound, per cent of control", "setting": "[5]", "result": 100, "unit": "%"}, {"measurement": "kinase still bound, per cent of control", "setting": "[6]", "result": 100, "unit": "%"}, {"measurement": "kinase still bound, per cent of control", "setting": "[7]", "result": 100, "unit": "%"}, {"measurement": "kinase still bound, per cent of control", "setting": "[8]", "result": 100, "unit": "%"}, {"measurement": "kinase still bound, per cent of control", "setting": "[9]", "result": 100, "unit": "%"}, {"measurement": "kinase still bound, per cent of control", "setting": "[10]", "result": 72, "unit": "%"}, {"measurement": "kinase still bound, per cent of control", "setting": "[11]", "result": 100, "unit": "%"}, {"measurement": "kinase still bound, per cent of control", "setting": "[12]", "result": 100, "unit": "%"}, {"measurement": "kinase still bound, per cent of control", "setting": "[13]", "result": 100, "unit": "%"}, {"measurement": "kinase still bound, per cent of control", "setting": "[14]", "result": 100, "unit": "%"}, {"measurement": "kinase still bound, per cent of control", "setting": "[15]", "result": 89, "unit": "%"}, {"measurement": "kinase still bound, per cent of control", "setting": "[16]", "result": 100, "unit": "%"}, {"measurement": "kinase still bound, per cent of control", "setting": "[17]", "result": 100, "unit": "%"}, {"measurement": "kinase still bound, per cent of control", "setting": "[18]", "result": 100, "unit": "%"}, {"measurement": "kinase still bound, per cent of control", "setting": "[19]", "result": 91, "unit": "%"}, {"measurement": "kinase still bound, per cent of control", "setting": "[20]", "result": 100, "unit": "%"}, {"measurement": "kinase still bound, per cent of control", "setting": "[21]", "result": 95, "unit": "%"}, {"measurement": "kinase still bound, per cent of control", "setting": "[22]", "result": 88, "unit": "%"}, {"measurement": "kinase still bound, per cent of control", "setting": "[23]", "result": 100, "unit": "%"}, {"measurement": "kinase still bound, per cent of control", "setting": "[24]", "result": 100, "unit": "%"}, {"measurement": "kinase still bound, per cent of control", "setting": "[25]", "result": 39, "unit": "%"}, {"measurement": "kinase still bound, per cent of control", "setting": "[26]", "result": 42, "unit": "%"}, {"measurement": "kinase still bound, per cent of control", "setting": "[27]", "result": 100, "unit": "%"}, {"measurement": "kinase still bound, per cent of control", "setting": "[28]", "result": 100, "unit": "%"}, {"measurement": "kinase still bound, per cent of control", "setting": "[29]", "result": 8, "unit": "%"}, {"measurement": "kinase still bound, per cent of control", "setting": "[30]", "result": 100, "unit": "%"}, {"measurement": "kinase still bound, per cent of control", "setting": "[31]", "result": 100, "unit": "%"}, {"measurement": "kinase still bound, per cent of control", "setting": "[32]", "result": 100, "unit": "%"}, {"measurement": "kinase still bound, per cent of control", "setting": "[33]", "result": 100, "unit": "%"}, {"measurement": "kinase still bound, per cent of control", "setting": "[34]", "result": 26, "unit": "%"}, {"measurement": "kinase still bound, per cent of control", "setting": "[35]", "result": 100, "unit": "%"}, {"measurement": "kinase still bound, per cent of control", "setting": "[36]", "result": 11, "unit": "%"}, {"measurement": "kinase still bound, per cent of control", "setting": "[37]", "result": 51, "unit": "%"}, {"measurement": "kinase still bound, per cent of control", "setting": "[38]", "result": 100, "unit": "%"}, {"measurement": "kinase still bound, per cent of control", "setting": "[39]", "result": 59, "unit": "%"}, {"measurement": "kinase still bound, per cent of control", "setting": "[40]", "result": 100, "unit": "%"}, {"measurement": "kinase still bound, per cent of control", "setting": "[41]", "result": 51, "unit": "%"}, {"measurement": "kinase still bound, per cent of control", "setting": "[42]", "result": 58, "unit": "%"}]}]}
